Patent publication EP4151631A1, “HETEROCYCLIC COMPOUNDS FOR THE CONTROL OF INVERTEBRATE PESTS” (BASF SE, priority 2021, dated 2023)

Legend:
Plutella xylostella = assay: Diamond back moth leaf-dip test on cabbage leaves; type: in vivo; details: 3rd instar larvae on dipped cabbage leaves, 72 hours after treatment, read-out: mortality in comparison with untreated controls
Method: The active compound was dissolved at the desired concentration in a mixture of 1:1 (vol:vol) distilled water: acetone. Surfactant (Kinetic HV) was added at a rate of 0.01% (vol/vol). The test solution was prepared on the day of use.
Leaves of cabbage were dipped in test solution and air-dried. Treated leaves were placed in petri dishes lined with moist filter paper and inoculated with ten 3rd instar larvae. Mortality was recorded 72 hours after treatment. Feeding damages were also recorded using a scale of 0-100%.

Spodoptera eridania = assay: Southern armyworm foliar spray test on lima bean plants; type: in vivo; details: 96 h, 2nd instar larvae on sprayed lima bean plants, 4 days after treatment, read-out: mortality in comparison with untreated controls
Method: The active compounds were formulated by a Tecan liquid handler in 100% cyclohexanone as a 10,000 ppm solution supplied in tubes. The 10,000 ppm solution was serially diluted in 100% cyclohexanone to make interim solutions. These served as stock solutions for which final dilutions were made by the Tecan in 50% acetone:50% water (v/v) into 10 or 20ml glass vials. A nonionic surfactant (Kinetic®) was included in the solution at a volume of 0.01% (v/v). The vials were then inserted into an automated electrostatic sprayer equipped with an atomizing nozzle for application to plants/insects. Lima bean plants (variety Sieva) were grown 2 plants to a pot and selected for treatment at the 1st true leaf stage. Test solutions were sprayed onto the foliage by an automated electrostatic plant sprayer equipped with an atomizing spray nozzle. The plants were dried in the sprayer fume hood and then removed from the sprayer. Each pot was placed into perforated plastic bags with a zip closure. Ten to 11 armyworm larvae were placed into the bag and the bags zipped closed. Test plants were maintained in a growth room at about 25°C and about 20-40% relative humidity for 4 days, avoiding direct exposure to fluorescent light (14:10 light:dark photoperiod) to prevent trapping of heat inside the bags. Mortality and reduced feeding were assessed 4 days after treatment, compared to untreated control plants.

Structure (SMILES) | mortality at 300 ppm (Plutella xylostella) [%] | mortality at 300 ppm (Spodoptera eridania) [%]
CC(NC(=O)c1cc(Br)cc(C(F)(F)F)c1)c1nccnc1-n1ncn(C)c1=O (stereo not shown) [I-1, 3-bromo-N-[1-[3-(4-methyl-5-oxo-1,2,4-triazol-1-yl)pyrazin-2-yl]ethyl]-5-(trifluoromethyl)benzamide] | ≥ 75 | ≥ 75
CC(NC(=O)c1cc(Br)cc(C(F)(F)F)c1)c1nccnc1-n1ncn(CC(F)(F)F)c1=O (stereo not shown) [I-2, 3-bromo-N-[1-[3-[5-oxo-4-(2,2,2-trifluoroethyl)-1,2,4-triazol-1-yl]pyrazin-2-yl]ethyl]-5-(trifluoromethyl)benzamide] | ≥ 75 | ≥ 75
